Like-named read-outs stand apart in the source and are kept apart here.
Columns and labels:
human FXIa = human FXIa (Homo sapiens, UniProt P03951); experiment: In vitro activated factor XI (FXIa) inhibition test; format: biochemical
Description: To the substrate, S-2366 (pyroGlu-Pro-Arg-pNA•HCl) was added to a final concentration of 300 µmol/L. After the reaction had progressed, the absorbance at OD 405 nm was measured. […]

[1] = tested on: rabbit model with venous thrombus; experiment: Rabbit in vivo antithrombotic action evaluation test (venous thrombus model, thrombus weight); conditions: i.v.
Source text: A rabbit model with venous thrombus was produced by modifying the report of Wienen et al. (Wienen W. et al., J. Thromb. Haemost. 5:1237-1242 (2007)). A male rabbit (JW, 2-4 kg) was narcotized by inhalation of isoflurane (ISOFLU®, manufactured by DS Pharma Animal Health) (inductive anesthesia: 4%, continuous anesthesia: 1.5% to 2.5%). For intravenous administration of a test agent and blood collection, catheters were inserted into the left femoral vein and the left femoral artery. The left external jugular vein was exposed (2 cm) from a branch of the facial vein, the microvascular branch was then ligated, and a catheter was then inserted into the posterior facial vein. The external jugular vein (2 cm) exposed from each of an anterior facial vein branch and a facial vein branch was ligated with an artery clamp, and blood was then removed from a catheter left in the posterior facial vein. Blood in the blood vessel was washed with a normal saline, and 0.5% polidocanol (manufactured by Sigma) was injected into the blood vessel. It was then left for 5 minutes, so that the occurrence of a disorder in vascular endothelium was provoked. Thereafter, 0.5% polidocanol was removed, the inside of the blood vessel was then washed with a normal saline, and the artery clamp was then removed. The external jugular vein (2 cm) exposed from the facial vein branch, together with an injection needle 21G (manufactured by Terumo), was ligated with a silk thread, so that the inner diameter of the blood vessel was reduced to 0.8 mm. Twenty-five minutes after recirculation of the blood flow, the external jugular vein (2cm) exposed from the facial vein branch was excised, and the wet weight and dry weight of a thrombus formed in the blood vessel were measured. A test agent or a vehicle was administered to the rabbit 2 minutes before recirculation of the blood flow.

[2] = tested on: endogenous coagulation pathway; experiment: Activated partial thromboplastin time (aPTT) of blood sample from the rabbit venous thrombus test; format: in vivo; conditions: i.v.; for aPTT: blood collected 2 minutes after administration
Description: In order to measure the activated partial thromboplastin time (aPTT) of the blood sample, which was to be used as an indicator of an endogenous coagulation pathway, 2 minutes after the administration of the test agent or the vehicle, blood was collected, and plasma was then prepared using 3.2% sodium citrate. The prepared plasma was incubated at 37°C for 7 minutes, and an STA reagent Cephascreen (used for aPTT measurement; manufactured by Roche Diagnostics) was added in an equal amount to the resulting plasma, and the obtained mixture was further incubated for 3 minutes. Thereafter, STA calcium chloride (manufactured by Roche Diagnostics) was added in an equal amount to the resultant, and the time required until coagulation was then measured.

[3] = Ester metabolism stabilization test: human liver stabilization test; format: in vitro ADME; conditions: human liver S9 with NADPH, 37°C, 30 minutes
Description: A reaction solution prepared by mixing 5 µL of human liver S9 (manufactured by Xenotech, 20 mg/mL), 20 µL of 500 mmol/L Kpi (pH7.4), 40 µL of 5 mmol/L NADPH (manufactured by Oriental Yeast Co., Ltd.) aqueous solution, and 133 µL of ion exchange water was added to 2 µL of a DMSO solution containing 100 µmol/L test substance, and the thus obtained mixture was then incubated at 37°C for 30 minutes. After completion of the incubation, 600 µL of acetonitrile was added to the reaction solution, so that the metabolic reaction was terminated. The residual percentage of the test substance was measured using LC (LC-20A manufactured by Shimadzu Corporation) and -MS (API4000 manufactured by AB Sciex).

[4] = Ester metabolism stabilization test: stabilization in human plasma test; format: in vitro ADME; conditions: 37°C, 30 minutes
Description: 198 µL of human plasma (manufactured by Cosmo Bio) was added to 2 µL of a DMSO solution containing 100 µmol/L test substance, and the obtained mixture was then incubated at 37°C for 30 minutes. After completion of the incubation, 600 µL of acetonitrile was added to the reaction solution, so that the metabolic reaction was terminated. The residual percentage of the test substance was measured using LC (LC-20A manufactured by Shimadzu Corporation) and -MS (API4000 manufactured by AB Sciex).

[5] = 0.35 µg/mL human FXIa, substrate S-2366 300 µmol/L, 37°C, 10 minutes, OD 405 nm, read-out: FXIa inhibitory activity IC50

Chain of human FXIa (P03951 388-625 limits assumed): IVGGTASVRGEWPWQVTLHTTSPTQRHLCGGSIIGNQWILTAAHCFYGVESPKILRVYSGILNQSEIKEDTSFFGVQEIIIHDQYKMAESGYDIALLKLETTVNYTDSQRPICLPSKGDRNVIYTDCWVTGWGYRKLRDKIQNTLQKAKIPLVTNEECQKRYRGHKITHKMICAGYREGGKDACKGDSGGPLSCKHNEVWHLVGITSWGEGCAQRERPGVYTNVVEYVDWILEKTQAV
Chain of human FXIa (P03951 19-387 partner limits assumed): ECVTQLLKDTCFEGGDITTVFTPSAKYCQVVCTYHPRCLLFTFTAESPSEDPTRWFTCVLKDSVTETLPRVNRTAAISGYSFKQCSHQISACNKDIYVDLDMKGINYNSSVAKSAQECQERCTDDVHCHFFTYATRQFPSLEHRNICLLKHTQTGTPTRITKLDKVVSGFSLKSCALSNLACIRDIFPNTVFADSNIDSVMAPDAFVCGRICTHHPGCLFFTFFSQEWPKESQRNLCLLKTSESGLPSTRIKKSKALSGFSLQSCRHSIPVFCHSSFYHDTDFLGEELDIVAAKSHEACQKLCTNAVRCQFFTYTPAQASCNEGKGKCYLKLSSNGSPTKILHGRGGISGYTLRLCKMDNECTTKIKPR

Compound	Residual percentage (%) Human liver S9 [3]	Residual percentage (%) Human plasma [4]	IC50 (human FXIa; [5])	further results
N[C@H](CF)[C@H]1CC[C@H](C(=O)N2CCC(C3CCCCC3)[C@H]2C(=O)Nc2ccc3oc(C(=O)O)cc3c2)CC1 (single isomer, unassigned) [compound 53]	–	–	–	IC50 (human FXIa): 0.034 µM; Thrombus (% inhibition) ([1]; dose 0.1 mg/kg): 25%; Thrombus weight ([1]; dose 0.1 mg/kg): 51.3 mg; Thrombus (% inhibition) ([1]; dose 0.3 mg/kg): 56%; Thrombus weight ([1]; dose 0.3 mg/kg): 30.3 mg; Thrombus (% inhibition) ([1]; dose 1.0 mg/kg): 79%; Thrombus weight ([1]; dose 1.0 mg/kg): 14.7 mg; Thrombus (% inhibition) ([1]; dose 3.0 mg/kg): 80%; Thrombus weight ([1]; dose 3.0 mg/kg): 14.0 mg; aPTT (% vehicle) ([2]; dose 0.1 mg/kg): 103%; aPTT ([2]; dose 0.1 mg/kg): 17.8 s; aPTT (% vehicle) ([2]; dose 0.3 mg/kg): 117%; aPTT ([2]; dose 0.3 mg/kg): 20.3 s; aPTT (% vehicle) ([2]; dose 1.0 mg/kg): 140%; aPTT ([2]; dose 1.0 mg/kg): 24.2 s; aPTT (% vehicle) ([2]; dose 3.0 mg/kg): 166%; aPTT ([2]; dose 3.0 mg/kg): 28.8 s
CC(C)OC(=O)OC(C)OC(=O)c1cc2cc(NC(=O)[C@@H]3[C@H](C4CCCCC4)CCN3C(=O)[C@H]3CC[C@H]([C@H](N)CF)CC3)ccc2[nH]1 (some centres unmarked) [compound 128]	47%	82%	–	–
Cc1oc(=O)oc1COC(=O)c1cc2cc(NC(=O)[C@@H]3[C@@H](c4ccccc4)CCN3C(=O)[C@H]3CC[C@H]([C@H](N)CF)CC3)ccc2[nH]1 [compound 171]	18%	<1%	0.3 µM	–
CCC(=O)OC(OC(=O)c1cc2cc(NC(=O)[C@@H]3[C@@H](c4ccccc4)CCN3C(=O)[C@H]3CC[C@H]([C@H](N)CF)CC3)ccc2[nH]1)C(C)C (some centres unmarked) [compound 125]	5.6%	86%	–	–
N[C@H](CF)[C@H]1CC[C@H](C(=O)N2CC[C@@H](C3CCCCC3)[C@H]2C(=O)Nc2ccc3oc(C(=O)OCC4CCOCC4)cc3c2)CC1 [compound 141]	17%	94%	–	IC50 (human FXIa): 3.45 µM
COCCCOC(=O)c1cc2cc(NC(=O)[C@@H]3[C@H](C4CCCCC4)CCN3C(=O)[C@H]3CC[C@H]([C@H](N)CF)CC3)ccc2o1 [compound 82]	5.8%	92%	–	–
COC1CCC([C@@H]2CCN(C(=O)[C@H]3CC[C@H]([C@H](N)CF)CC3)[C@@H]2C(=O)Nc2ccc3oc(C(=O)OCC(C)C)cc3c2)CC1 (some centres unmarked) [compound 201]	45%	85%	4.1 µM	–
CS(=O)(=O)NC(=O)c1cc2cc(NC(=O)[C@@H]3[C@H](C4CCCCC4)CCN3C(=O)[C@H]3CC[C@H]([C@H](N)CF)CC3)ccc2[nH]1 [compound 114]	–	–	0.007 µM	–
CC(OC(=O)OC1CCCCC1)OC(=O)c1cc2cc(NC(=O)[C@@H]3[C@@H](c4ccccc4)CCN3C(=O)[C@H]3CC[C@H]([C@H](N)CF)CC3)ccc2[nH]1 (some centres unmarked) [compound 120]	4.9%	65%	–	–
Cn1c(C(=O)O)cc2cc(NC(=O)[C@@H]3[C@H](C4CCCCC4)CCN3C(=O)[C@H]3CC[C@H](C(N)CF)CC3)ccc21 (some centres unmarked) [compound 29]	–	–	0.082 µM	–
(1R)-1-([(1S)-1-(trans-4-{[(2S,3S)-3-Cyclohexyl-2-{[4-(1H-tetrazol-5-yl)phenyl]carbamoyl}pyrrolidin-1-yl]carbonyl}cyclohexyl)-2-fluoroethyl]carbamoyl}oxy)ethyl 2-methylpropanoate [Example 205]	3.5%	60%	–	–
NC[C@H]1CC[C@H](C(=O)N2CCC(c3ccccc3)[C@H]2C(=O)Nc2ccc3[nH]c(C(N)=O)cc3c2)CC1 (some centres unmarked) [compound 24]	–	–	0.034 µM	–
N[C@H](CF)[C@H]1CC[C@H](C(=O)N2CCC(C3CCCCC3)[C@H]2C(=O)Nc2ccc3sc(C(=O)O)cc3c2)CC1 (single isomer, unassigned) [compound 130]	–	–	–	IC50 (human FXIa): 0.195 µM
COCCOCCCOC(=O)c1cc2cc(NC(=O)[C@@H]3[C@H](C4CCC(OC)CC4)CCN3C(=O)[C@H]3CC[C@H]([C@H](N)CF)CC3)ccc2o1 (some centres unmarked) [compound 196]	–	–	–	IC50 (human FXIa): 3.5 µM
NC(CF)[C@H]1CC[C@H](C(=O)N2CC[C@@H](C3CCCCC3)[C@H]2C(=O)Nc2ccc3[nH]c(C(=O)O)cc3c2)CC1 (some centres unmarked) [compound 35]	–	–	0.014 µM	–
N[C@H](CF)[C@H]1CC[C@H](C(=O)N2CC[C@@H](C3CCCCC3)[C@H]2C(=O)Nc2ccc3[nH]c(C(=O)NS(=O)(=O)N4CCCCC4)cc3c2)CC1 [compound 213]	–	–	0.01 µM	–
NC(CF)[C@H]1CC[C@H](C(=O)N2CC[C@@H](C3CCCCC3)[C@H]2C(=O)Nc2ccc3[nH]c(C(=O)O)c(Cl)c3c2)CC1 (some centres unmarked) [compound 34]	–	–	0.028 µM	–

From EP2876105A1, “1-(CYCLOALKYL-CARBONYL)PROLINE DERIVATIVE” (Sumitomo Dainippon Pharma Co., Ltd., priority 2012, dated 2014)
